Series [1] has as its system zebrafish embryos. The experiment in a line: Five-day zebrafish toxicity testing. In kind it is in vivo. To be noted: for Zebrafish specific toxicity observed: five-day exposure. The procedure:
Fertilized zebrafish embryos were obtained by natural spawning in our aquaculture facility. To reduce variations between batches, randomized samples of embryos from 3 or 4 independent matings were used. The test medium was prepared by combining 5 g of Instant Ocean Salt with 3 g of CaSO4 in 25 liters of distilled water, according to Westerfield, supra. The embryos were maintained in the test medium throughout the experiments. Embryos at 24 hours of development (with chorion) were exposed continuously for five days to chemical compounds at different concentrations of the chemical compounds and controls. In general, the concentrations ranged from 100 nanomolar (nM) to 100 micromolar (μM). Tests were repeated four times for each series of dilutions, and a standard deviation was calculated for each treatment (see “Statistical Methods” section). Ten embryos per concentration were exposed in a total volume of 1 ml (constant ratio of 100 μl/embryo) using a 24 multi-well plate. (Other sizes of multi-well plates, such as 96-well plates can also be used to facilitate screening.) The compounds were renewed daily. In all cases, 0.1% of dimethyl sulfoxide (DMSO) was used as a carrier solvent during the treatment. Controls with and without 0.1% DMSO were performed in all experiments. This approach has long been used to introduce anesthetics and other chemicals into fish embryos (Westerfield, supra).
Experiments were carried out at a constant temperature (28–28.5° C.) in the dark to protect the compounds from decomposition due to light exposure. Dead embryos were removed daily, counted, and used to calculate the Median Lethal Concentration (LC50, see “Statistical Methods” section herein). Each day, surviving embryos were analyzed visually under a dissecting binocular microscope (Zeiss, amplification 30–50×). Macroscopic malformations (such as axial defects, embryolethality, growth inhibition, general malformations, including microcephaly, macrocephaly, tail truncation, tail malformation, loss of axial structures, such as somites, etc.) were observed, classified, and counted to assess whole animal toxicity. Compounds that were lethal or induced these or any noted malformations or disruptions during development (e.g., during the first 5 days of development) were further examined for toxic effects on organs. The embryonic developmental stage that is affected by the toxic compound can be determined. Organ toxicity can be assessed in surviving embryos using in situ hybridization, enzymatic assays, and immunochemistry procedures.
Toxic activity in the kidney (Pronephros) can be assessed visually by colorimetric staining of the kidney of the treated whole animal (e.g., zebrafish). Zebrafish pronephros express high levels of the enzyme alkaline phosphatase that can be easily assayed using a chromogenic dye. To stain kidneys in zebrafish embryos, embryos were fixed with 2% paraformaldehyde overnight at 4° C. and then treated with methanol 100% for 30 minutes at room temperature. […]
For the concentrations tested with aspirin and dexamethasone in these studies, there was no partial lethality and the geometric mean of the parameters “no mortality” (0%) and “mortality” (100%) of the effect concentration was taken as the LC50 and binomial confidence limits were calculated according to Stephan, “Methods for Calculating LD50” in Aquatic Toxicology and Hazard Evaluation (F. L. Mayce and J. L. Hamelink eds.) ASTM STP 634, pp. 65–84. […]

For series [2], the system named is liver of zebrafish embryos. The experiment in a line: Liver staining with streptavidin-peroxidase (DAB visual, ABTS colorimetric). Format: in vivo. From the text: Toxic activity in the liver of the treated whole animal can be assessed visually by using a rapid colorimetric staining procedure. This procedure is based on the use of a streptavidin (avidin) conjugated reporter enzyme, such as peroxidase, to detect naturally biotinylated carboxylase enzymes in the liver, gut, and digestive tube of whole animals, such as zebrafish embryos. These biotinyl-lysine containing enzymes, such as acetyl-CoA carboxylase and other carboxylases, are predominantly located in the liver and digestive tube. As a result, staining is organ specific (FIG. 11). Quantitative biotinylated assessment of the liver can be made. By visual detection of biotinylation, size and location of the liver can be determined.
Zebrafish embryos (4, 5 or 6 days old) were fixed with 4% paraformaldehyde for 1 hour at room temperature and treated with methanol 100% overnight at −20° C. The embryos were rehydrated and washed with PBST. […] The embryos were then washed twenty minutes three times with PBST and stained for peroxidase with two different dyes: Diaminobenzidine (DAB) (Pierce) (insoluble) to assess liver staining and 2,2′-Azino-bis(3-Ethylbenz-thiazoline-6-sulfonic acid)(ABTS)(Sigma)(soluble) to measure a quantitative visual signal using a colorimetric method. […] The ABTS signal was detected by measuring the absorbance of the solution at 405 nanometer […] using a spectrophotometer. […]

For series [3], the system named is mice. Particulars: i.p. (intraperitoneal); cited from earlier work.
The test system of series [4] is rats. Particulars: i.p. (intraperitoneal); cited from earlier work.
The test system of series [5] is mice and rats. To be noted: TOXNET Web Search and other sources; cited from earlier work.

Entries after “also recorded” stand apart in the source; their conditions may differ.

For the compound `C[C@@H]1C[C@H]2[C@@H]3CCC4=CC(=O)C=C[C@]4(C)[C@@]3(F)[C@@H](O)C[C@]2(C)[C@@]1(O)C(=O)CO` [Dexamethasone], the “Zebrafish LD50” value in series [1] (embryos exposed continuously for five days from 24 hours of development) came to 324 mg/L. The “Zebrafish specific toxicity observed” value is “liver,; also recorded: gastro-” in series [1]; “Liver and gastrointestinal toxicity” in series [1] (listed as dexamethasone). Besides, in series [2] (100 μM for five days, six day old embryo), the “liver size compared with control embryos” value is recorded as “dramatic reduction in liver size”. In addition, the “reduction of the colorimetric liver signal (ABTS, 405 nm) compared with untreated embryos” value in series [2] (100 μM, five days) is recorded as “about 70%”. Further, the “Mammalian models LD50” value in series [3] was 410 (mice, i.p.) mg/kg; in series [4], 54 (rats, i.p.) mg/kg. Moreover, the “Mammalian models specific toxicity (from the literature)” value in series [5] is recorded as “liver,; also recorded: gastro-”.
